From ChEMBL document CHEMBL6115011, “Optimizing biofilm inhibitors: Balancing activity and toxicity in 2N-aminated 5-aryl-2-aminoimidazoles” (Bioorg Med Chem, 2025) come the findings set out here.

In series [1] the test system is Staphylococcus aureus. The series is described as follows: Antibacterial activity against Staphylococcus aureus SH1000 at 25 degree C measured after 48 hrs by crystal violet staining based microplate reader analysis. It counts as functional, organism-based. The conditions noted are these: SH1000, 48 h.
Series [2] concerns Staphylococcus aureus. Put plainly: Antibacterial activity against methicillin-resistant Staphylococcus aureus at 25 degree C measured after 48 hrs by crystal violet staining based microplate reader analysis. Type of series: functional, organism-based.
Series [3] is described as follows: Cytotoxicity against human PBMC cells assessed as survival rate at 400 uM measured after 72 hrs by trypan blue staining based assay (reference value: 48%). It counts as toxicity, cell-based. The conditions noted are these: read-out: Survival.
The test system of series [4] is Escherichia coli. Put plainly: Inhibition of biofilm formation in Escherichia coli TG1 at 25 degree C measured after 24 hrs by crystal violet staining based microplate reader analysis. Type of series: functional, organism-based. As to conditions: TG1, 24 h.
Series [5] can be described thus: Cytotoxicity against human PBMC cells assessed as survival rate at 25 to 100 uM measured after 72 hrs by trypan blue staining based assay. As to conditions: dose 25-100 µM. It counts as toxicity, cell-based.
The test system of series [6] is Staphylococcus aureus. The series is described as follows: Inhibition of biofilm formation in Staphylococcus aureus SH1000 at 25 degree C measured after 48 hrs by crystal violet staining based analysis. It counts as functional, organism-based. The conditions noted are these: SH1000, 48 h.
Series [7] relates to Escherichia coli. The series is described as follows: Antibacterial activity against Escherichia coli TG1 at 25 degree C measured after 24 hrs by crystal violet staining based microplate reader analysis. The conditions noted are these: TG1, 24 h. Type of series: functional, organism-based.
The subject of series [8] is Staphylococcus aureus. The series is described as follows: Inhibition of biofilm formation in methicillin-resistant Staphylococcus aureus at 25 degree C measured after 48 hrs by crystal violet staining based analysis. Type of series: functional, organism-based.
For series [9], the system named is Pseudomonas aeruginosa. The series is described as follows: Antibacterial activity against Pseudomonas aeruginosa PA14 at 25 degree C measured after 24 hrs by crystal violet staining based microplate reader analysis. The conditions noted are these: PA14, 24 h. It counts as functional, organism-based.
Series [10] in a line: Genotoxicity in human CAPAN-1 cells at 100 to 400 uM measured after 3 hrs by Western blot analysis. As to conditions: capan-1, 3 h, dose 100-400 µM. It counts as toxicity, cell-based. Background: A western blot detects proteins with antibodies after separation by electrophoresis.
The subject of series [11] is Staphylococcus epidermidis. Put plainly: Inhibition of biofilm formation in Staphylococcus epidermidis at 25 degree C measured after 48 hrs by crystal violet staining based analysis. Type of series: functional, organism-based.
For series [12], the system named is Pseudomonas aeruginosa. The series is described as follows: Inhibition of biofilm formation in Pseudomonas aeruginosa PA14 at 25 degree C measured after 24 hrs by crystal violet staining based analysis. It counts as functional, organism-based. The conditions noted are these: PA14, 24 h.
The nature of series [13]: Toxicity in Caenorhabditis elegans CB5612 by wide field microscopy based analysis.
The nature of series [14]: Cytotoxicity against human PBMC cells assessed as survival rate at 100 uM measured after 72 hrs by trypan blue staining based assay relative to control. It counts as toxicity, cell-based. As to conditions: read-out: Survival.
Series [15] can be described thus: Cytotoxicity against human PBMC cells assessed as survival rate at 25 uM measured after 72 hrs by trypan blue staining based assay relative to control. It counts as toxicity, cell-based. The conditions noted are these: read-out: Survival.
The subject of another series is HCT-116. The series is described as follows: Cytotoxicity against human HCT-116 cells assessed as inhibition of cell growth measured after 72 hrs by CellTiter 96 Aqueous One Solution Cell Proliferation Assay. Type of series: functional.
Series [16] in a line: Cytotoxicity against human DND41 cells assessed as inhibition of cell growth measured after 72 hrs by CellTiter 96 Aqueous One Solution Cell Proliferation Assay. Type of series: functional.
The nature of series [17]: Genotoxicity in human CAPAN-1 cells assessed as fold change at 400 uM measured after 3 hrs by Western blot analysis. Type of series: toxicity, cell-based. As to conditions: capan-1, 3 h.
Series [18] is described as follows: Cytotoxicity against human PBMC cells assessed as survival rate at 400 uM measured after 72 hrs by trypan blue staining based assay relative to control. It counts as toxicity, cell-based. As to conditions: read-out: Survival.
The subject of the next series is NCI-H460. The series is described as follows: Cytotoxicity against human NCI-H460 cells assessed as inhibition of cell growth measured after 72 hrs by CellTiter 96 Aqueous One Solution Cell Proliferation Assay. Type of series: functional.
For another series, the system named is LN-229. The series is described as follows: Cytotoxicity against human LN-229 cells assessed as inhibition of cell growth measured after 72 hrs by CellTiter 96 Aqueous One Solution Cell Proliferation Assay. Type of series: functional.
The subject of series [19] is Staphylococcus epidermidis. The series is described as follows: Antibacterial activity against Staphylococcus epidermidis at 25 degree C measured after 48 hrs by crystal violet staining based microplate reader analysis. It counts as functional, organism-based.
Another series relates to CAPAN-1. The series is described as follows: Cytotoxicity against human CAPAN-1 cells assessed as inhibition of cell growth measured after 72 hrs by CellTiter 96 Aqueous One Solution Cell Proliferation Assay. Type of series: functional.
Another series relates to K562. The series is described as follows: Cytotoxicity against human K562 cells assessed as inhibition of cell growth measured after 72 hrs by CellTiter 96 Aqueous One Solution Cell Proliferation Assay. It counts as functional.
A further series deals with HL-60. Put plainly: Cytotoxicity against human HL-60 cells assessed as inhibition of cell growth measured after 72 hrs by CellTiter 96 Aqueous One Solution Cell Proliferation Assay. It counts as functional.
Another series relates to Z-138. The series is described as follows: Cytotoxicity against human Z138 cells assessed as inhibition of cell growth measured after 72 hrs by CellTiter 96 Aqueous One Solution Cell Proliferation Assay. It counts as functional.
The nature of series [20]: Cytotoxicity against human PBMC cells assessed as survival rate at 25 uM measured after 72 hrs by trypan blue staining based assay (reference value: 94.0%). It counts as toxicity, cell-based. The conditions noted are these: read-out: Survival.

The IC50 is the concentration needed to halve the response being measured. For orientation: CC50 means the concentration at which the toxic effect on the cells reaches its halfway point.

For the molecule `NCCCCNc1ncc(-c2ccccc2)[nH]1`, the IC50 came to 287 µM in the series with Staphylococcus aureus [1]; 578 µM in the series with Staphylococcus aureus [2]; 35.3 µM in the series with Escherichia coli [4]; 155 µM with Staphylococcus aureus [6]; 56.6 µM in the series on Escherichia coli [7]; 138 µM with Staphylococcus aureus [8]. Also, the IC50 with Pseudomonas aeruginosa [9] came to 85.8 µM; in [11], 33.3 µM; in the series on Pseudomonas aeruginosa [12], 17 µM. Besides, the viability at 72 h, 400 µM in [3] turned out to be 9%. Further, the Activity result in [5] and in series [10] was “Non-toxic” throughout.

Take `NCCCCNc1ncc(-c2ccc(F)cc2)[nH]1`: the half-inhibitory concentration (IC50) stood at 176 µM in the series on Staphylococcus aureus [1]; 217 µM in the series on Staphylococcus aureus [2]; 14.9 µM in the series with Escherichia coli [4]; 167 µM in the series with Staphylococcus aureus [6]; 31.5 µM in the series with Escherichia coli [7]; 98.1 µM in the series with Staphylococcus aureus [8]. Also, the figures for the half-maximal inhibitory concentration (IC50) (in the series with Pseudomonas aeruginosa [9]; in series [11]; in the series with Pseudomonas aeruginosa [12]) were 34.6 µM, 6.1 µM and 4.5 µM, respectively. The Activity entry in series [13] was “Toxic”.

On to `NCCCCCCCCNc1ncc(-c2ccc(F)cc2)[nH]1`, for which the IC50 in the series on Staphylococcus aureus [1] amounted to 90.7 µM; in the series with Staphylococcus aureus [2] it was 79.9 µM; with Escherichia coli [4], 12.8 µM; in the series with Staphylococcus aureus [6] it was 47.6 µM; in the series with Escherichia coli [7], 21.6 µM; in the series on Staphylococcus aureus [8], 36.8 µM. Besides, the 50% inhibitory concentration (IC50) with Pseudomonas aeruginosa [9] worked out at 26.6 µM; in [11], 15.7 µM; in the series on Pseudomonas aeruginosa [12], 13.1 µM. The Activity entry in series [13] is recorded as “Toxic”. Further, the viability at 72 h, 100 µM in series [14] was found to be 70%. For the same molecule, the viability at 72 h, 25 µM in [15] came to 56.4%. Moreover, the 50% cytotoxic concentration (CC50) was 29.9 µM with HCT-116 and 46.4 µM in series [16]. In addition, the “fold change (FC)” value in series [17] is 2.35. Also, in series [18], the viability at 72 h, 400 µM amounted to 22.9%.

For the molecule `NCCCCCCCCNc1ncc(-c2ccccc2)[nH]1`, the IC50 in the series with Staphylococcus aureus [1] was 40.6 µM; in the series on Staphylococcus aureus [2], 45.4 µM; with Escherichia coli [4], 13.5 µM; in [19], 20.4 µM; with Staphylococcus aureus [6], 21.1 µM; in the series on Escherichia coli [7], 15.6 µM. For the same molecule, the IC50 in the series on Staphylococcus aureus [8] came to 35.3 µM; in the series on Pseudomonas aeruginosa [9] it was 21.1 µM; in series [11] it was 3.5 µM; in the series on Pseudomonas aeruginosa [12], 12.7 µM. The CC50 with NCI-H460 amounted to 30 µM; in the series on LN-229 (72 h) it was 30 µM; with LN-229 (Homo sapiens, LN-229, 72 h), 52.9 µM; with CAPAN-1, 30 µM; in series [16] it was 58.3 µM; in the series with K562 (72 h) it was 30 µM. The 50% cytotoxic concentration (CC50) with K562 (Homo sapiens, K562, 72 h) worked out at 57.4 µM; in the series on HL-60, 30 µM; in the series with Z-138 (72 h) it was 30 µM; in the series on Z-138 (Homo sapiens, Z-138, 72 h), 49.7 µM. For the same molecule, the viability at 72 h, 100 µM in series [14] is less than 50%. In series [10], the Activity result is listed as “Non-toxic”.

For `NCCCCCCNc1ncc(-c2ccccc2)[nH]1`, the IC50 in the series with Staphylococcus aureus [1] worked out at 186 µM; in the series with Staphylococcus aureus [2] it was 206 µM; with Escherichia coli [4], 26.5 µM; in [19] it was 164 µM; with Staphylococcus aureus [6], 95.6 µM; in the series with Escherichia coli [7] it was 55.3 µM. For the same molecule, the concentration for half-maximal inhibition (IC50) in the series on Staphylococcus aureus [8] was determined as 62.7 µM; with Pseudomonas aeruginosa [9] it was 73.4 µM; in series [11] it was 29.2 µM; with Pseudomonas aeruginosa [12], 23.4 µM. The viability at 72 h, 25 µM in series [20] was 78.6%. For the same molecule, the viability at 72 h, 100 µM in series [14] amounted to 12.9%. In [10], the Activity result is “Non-toxic”. Moreover, in series [18], the viability at 72 h, 400 µM turned out to be 2.9%.

`NCCCCCCCCNc1ncc(-c2ccc(Br)cc2)[nH]1`: the IC50 is 36.7 µM in the series with Staphylococcus aureus [1]; 61.8 µM in the series with Staphylococcus aureus [2]; 6.8 µM in the series on Escherichia coli [4]; 46.1 µM in the series on Staphylococcus aureus [6]; 17.6 µM in the series on Escherichia coli [7]; 26.3 µM in the series on Staphylococcus aureus [8]. The concentration for half-maximal inhibition (IC50) in the series on Pseudomonas aeruginosa [9] worked out at 14.5 µM; in [11] it was 12.6 µM; in the series on Pseudomonas aeruginosa [12], 7.8 µM. For the same molecule, the Activity entry in series [13] was “Toxic”. For the same molecule, the CC50 in the series on NCI-H460 turned out to be 30 µM; with LN-229 (Homo sapiens, LN-229, 72 h), 30 µM; with CAPAN-1, 30 µM; in the series on K562 (Homo sapiens, K562, 72 h), 30 µM; in the series on HL-60 it was 30 µM; in the series on Z-138 (Homo sapiens, Z-138, 72 h) it was 30 µM. For the same molecule, in series [14], the viability at 72 h, 100 µM is 94%. Besides, the viability at 72 h, 25 µM in series [15] came to 79.8%. In series [18], the viability at 72 h, 400 µM came out at 30.2%.
